Measurements: patent publication US20230093861A1, “RAPAMYCIN ANALOGS AS MTOR INHIBITORS” (Revolution Medicines, Inc., priority 2017, published 2023)

Experiments:
[1] = system: P-P70S6K (T389); assay: Cell based AlphaLISA assay, inhibition of P-P70S6K (T389) (mTORC1 substrate phosphorylation) in MDA-MB-468 cells; conditions: Homo sapiens, 4 h, AlphaLISA, two to four hours at 37° C., read-out: pIC50 for Inhibition of mTORC1 and mTORC2 Substrate Phosphorylation, P-P70S6K-(T389) (converted)
Experimental: (§1) Cell Based AlphaLISA Assays for Determining IC50 for Inhibition of P-Akt (S473), P-4E-BP1 (T37/46), and P-P70S6K (T389) in MDA-MB-468 Cells
(§2) mTOR Kinase Cellular Assay
(§3) To measure functional activity of mTORC1 and mTORC2 in cells the phosphorylation of 4EBP1 (Thr37/46) and P70S6K (Thr389), and AKT1/2/3 (Ser473) was monitored using AlphaLisa SureFire Ultra Kits (Perkin Elmer). […] Incubations were terminated by removal of the assay buffer and addition of lysis buffer provided with the assay kit. Samples were processed according to the manufacturer's instructions. The Alpha signal from the respective phosphoproteins was measured in duplicate using a microplate reader (Envision, Perkin-Elmer or Spectramax M5, Molecular Devices). Inhibitor concentration response curves were analyzed using normalized IC50 regression curve fitting with control based normalization.

[2] = system: P-4E-BP1 (T37/46); assay: Cell based AlphaLISA assay, inhibition of P-4E-BP1 (T37/46) (mTORC1 substrate phosphorylation) in MDA-MB-468 cells; conditions: Homo sapiens, MDA-MB-468, 4 h, AlphaLISA, two to four hours at 37° C., read-out: pIC50 for Inhibition of mTORC1 and mTORC2 Substrate Phosphorylation, P-4E-BP1-(T37/46) (converted)
Experimental: as §1, §2, §3

[3] = system: P-Akt (S473); assay: Cell based AlphaLISA assay, inhibition of P-Akt (S473) (mTORC2 substrate phosphorylation) in MDA-MB-468 cells; conditions: Homo sapiens, MDA-MB-468, 4 h, AlphaLISA, two to four hours at 37° C., read-out: pIC50 for Inhibition of mTORC1 and mTORC2 Substrate Phosphorylation, p-AKT 1/2/3 -(S473) (converted)
Experimental: as §1, §2, §3

| SMILES | IC50 [1] [nM] | IC50 [2] [nM] | IC50 [3] [nM] |
| --- | --- | --- | --- |
| CO[C@H]1C[C@@H]2CC[C@@H](C)[C@@](O)(O2)C(=O)C(=O)N2CCCC[C@H]2C(=O)O[C@H]([C@H](C)C[C@@H]2CC[C@@H](OCCCCc3cn(CCOCCOCCOCCOCCOCCOCCC(=O)NCCCCn4nc(-c5cnc6[nH]ccc6c5)c5c(N)ncnc54)nn3)[C@H](OC)C2)C[C@@H](OC)[C@H](C)/C=C(\C)[C@@H](O)[C@@H](OC)C(=O)[C@H](C)C[C@H](C)/C=C/C=C/C=C/1C [Example 70] | 1 to 10 | > 1000 | > 1000 |
| CO[C@H]1C[C@@H]2CC[C@@H](C)[C@@](O)(O2)C(=O)C(=O)N2CCCC[C@H]2C(=O)O[C@H]([C@H](C)C[C@@H]2CC[C@H](n3cc(-c4cccc(C(=O)NCCOCCOCCOCCC(=O)NCCOCCOCCOCCC(=O)NCCCCn5nc(-c6ccc7oc(N)nc7c6)c6c(N)ncnc65)c4)nn3)[C@H](OC)C2)CC(=O)[C@H](C)/C=C(\C)[C@@H](O)[C@@H](OC)C(=O)[C@H](C)C[C@H](C)/C=C/C=C/C=C/1C [Example 137] | 1 to 10 | 3.16 to 31.6 | 31.6 to 1000 |
| CO[C@H]1C[C@@H]2CC[C@@H](C)[C@@](O)(O2)C(=O)C(=O)N2CCCC[C@H]2C(=O)O[C@H]([C@H](C)C[C@@H]2CC[C@H](n3cc(COC(=O)NCCOCCOCCOCCOCCC(=O)NCc4cnc(N5CCN(c6ncc(C(=O)NCCCCn7nc(-c8cc9cc(O)ccc9[nH]8)c8c(N)ncnc87)cn6)CC5)nc4)nn3)[C@H](OC)C2)CC(=O)[C@H](C)/C=C(\C)[C@@H](O)[C@@H](OC)C(=O)[C@H](C)C[C@H](C)/C=C/C=C/C=C/1C [Example 186] | < 1 | 3.16 to 31.6 | 31.6 to 1000 |
| CO[C@H]1C[C@@H]2CC[C@@H](C)[C@@](O)(O2)C(=O)C(=O)N2CCCC[C@H]2C(=O)O[C@H]([C@H](C)C[C@@H]2CC[C@@H](O)[C@H](OC)C2)C[C@@H](O)[C@H](C)/C=C(\C)[C@@H](O)[C@@H](OC)C(=NOCc2cn(CCOCCOCCOCCOCCOCCOCCC(=O)NCCCCn3nc(-c4ccc5oc(N)nc5c4)c4c(N)ncnc43)nn2)[C@H](C)C[C@H](C)/C=C/C=C/C=C/1C [Example 51] | 1 to 10 | 3.16 to 31.6 | 31.6 to 1000 |
| CO[C@H]1C[C@@H]2CC[C@@H](C)[C@@](O)(O2)C(=O)C(=O)N2CCCC[C@H]2C(=O)O[C@H]([C@H](C)C[C@@H]2CC[C@H](n3nncc3-c3cccc(-c4cnc(N5CCN(S(=O)(=O)CCc6cn(CCOCCOCCC(=O)NCCCCn7nc(-c8ccc9oc(N)nc9c8)c8c(N)ncnc87)nn6)CC5)nc4)c3)[C@H](OC)C2)CC(=O)[C@H](C)/C=C(\C)[C@@H](O)[C@@H](OC)C(=O)[C@H](C)C[C@H](C)/C=C/C=C/C=C/1C [Example 36] | < 1 | 3.16 to 31.6 | 3.16 to 31.6 |
| CO[C@H]1C[C@@H]2CC[C@@H](C)[C@@](O)(O2)C(=O)C(=O)N2CCCC[C@H]2C(=O)O[C@H]([C@H](C)C[C@@H]2CC[C@H](n3cc(CCCC(=O)NCCOCCOCCOCCC(=O)NCCOCCOCCOCCC(=O)NCCCCn4nc(-c5ccc6oc(N)nc6c5)c5c(N)ncnc54)nn3)[C@H](OC)C2)C[C@@H](OC)[C@H](C)/C=C(\C)[C@@H](O)[C@@H](OC)C(=O)[C@H](C)C[C@H](C)/C=C/C=C/C=C/1C [Example 164] | < 1 | 3.16 to 31.6 | 31.6 to 1000 |
| CO[C@H]1C[C@@H]2CC[C@@H](C)[C@@](O)(O2)C(=O)C(=O)N2CCCC[C@H]2C(=O)O[C@H]([C@H](C)C[C@@H]2CC[C@H](n3cc(COC(=O)NCCOCCOCCOCCC(=O)NCCOCCOCCC(=O)NCCCCn4nc(-c5cc6cc(O)ccc6[nH]5)c5c(N)ncnc54)nn3)[C@H](OC)C2)C/C(=N/OC(C)(C)C)[C@H](C)/C=C(\C)[C@@H](O)[C@@H](OC)C(=O)[C@H](C)C[C@H](C)/C=C/C=C/C=C/1C [Example 159] | < 1 | > 1000 | > 1000 |
| CO[C@H]1C[C@@H]2CC[C@@H](C)[C@@](O)(O2)C(=O)C(=O)N2CCCC[C@H]2C(=O)O[C@H]([C@H](C)C[C@@H]2CC[C@@H](OCCCCc3cn(CCOCCOCCOCCOCCOCCOCCOCCOCCC(=O)NCCCCn4nc(I)c5c(N)ncnc54)nn3)[C@H](OC)C2)CC(=O)[C@H](C)/C=C(\C)[C@@H](O)[C@@H](OC)C(=O)[C@H](C)C[C@H](C)/C=C/C=C/C=C/1C [Example 4] | < 1 | > 1000 | > 1000 |
| CO[C@H]1C[C@@H]2CC[C@@H](C)[C@@](O)(O2)C(=O)C(=O)N2CCCC[C@H]2C(=O)O[C@H]([C@H](C)C[C@@H]2CC[C@@H](OCCCCc3cn(CCOCCOCCOCCOCCOCCOCCOCCOCCC(=O)N4CCN(c5cc(-n6nc(-c7ccc8oc(N)nc8c7)c7c(N)ncnc76)ncn5)CC4)nn3)[C@H](OC)C2)CC(=O)[C@H](C)/C=C(\C)[C@@H](O)[C@@H](OC)C(=O)[C@H](C)C[C@H](C)/C=C/C=C/C=C/1C [Example 95] | < 1 | < 3.16 | 3.16 to 31.6 |
| CO[C@H]1C[C@@H]2CC[C@@H](C)[C@@](O)(O2)C(=O)C(=O)N2CCCC[C@H]2C(=O)O[C@H]([C@H](C)C[C@@H]2CC[C@@H](OCc3cccc(-c4cnc(N5CCN(S(=O)(=O)CCc6cn(CCOCCOCCOCCOCCC(=O)NCCCCn7nc(-c8ccc9oc(N)nc9c8)c8c(N)ncnc87)nn6)CC5)nc4)c3)[C@H](OC)C2)CC(=O)[C@H](C)/C=C(\C)[C@@H](O)[C@@H](OC)C(=O)[C@H](C)C[C@H](C)/C=C/C=C/C=C/1C [Example 26] | < 1 | < 3.16 | 3.16 to 31.6 |
| COC(=O)N[C@H]1C[C@@H]2CC[C@@H](C)[C@@](O)(O2)C(=O)C(=O)N2CCCC[C@H]2C(=O)O[C@H]([C@H](C)C[C@@H]2CC[C@@H](OCCCCc3cn(CCOCCOCCOCCOCCOCCOCCOCCOCCC(=O)N4CCN(c5ccc(-n6c(=O)n(C)c7cnc8ccc(-c9ccc(OC)nc9)cc8c76)cc5C(F)(F)F)CC4)nn3)[C@H](OC)C2)CC(=O)[C@H](C)/C=C(\C)[C@@H](O)[C@@H](OC)C(=O)[C@H](C)CC(C)/C=C/C=C/C=C/1C (stereo partly drawn) [Example 72] | < 1 | < 3.16 | < 3.16 |
| CO[C@H]1C[C@@H]2CC[C@@H](C)[C@@](O)(O2)C(=O)C(=O)N2CCCC[C@H]2C(=O)O[C@H]([C@H](C)C[C@@H]2CC[C@H](n3cc(CCCC(=O)NCCOCCOCCOCCC(=O)NCCOCCOCCC(=O)NCCCCn4nc(-c5cc6cc(O)ccc6[nH]5)c5c(N)ncnc54)nn3)[C@H](OC)C2)C[C@@H](OC)[C@H](C)/C=C(\C)[C@@H](O)[C@@H](OC)C(=O)[C@H](C)C[C@H](C)/C=C/C=C/C=C/1C [Example 163] | 10 to 1000 | > 1000 | > 1000 |
| CO[C@H]1C[C@@H]2CC[C@@H](C)[C@@](O)(O2)C(=O)C(=O)N2CCCC[C@H]2C(=O)O[C@H]([C@H](C)C[C@@H]2CC[C@@H](O)[C@H](OC)C2)C[C@@H](O)[C@H](C)/C=C(\C)[C@@H](O)[C@@H](OC)C(=NOCc2cn(-c3cnc(N4CCN(c5ncc(C(=O)NCCOCCC(=O)NCCCCn6nc(-c7ccc8oc(N)nc8c7)c7c(N)ncnc76)cn5)CC4CO)nc3)nn2)[C@H](C)C[C@H](C)/C=C/C=C/C=C/1C (stereo partly drawn) [Example 194] | < 1 | > 1000 | > 1000 |
| CO[C@H]1C[C@@H]2CC[C@@H](C)[C@@](O)(O2)C(=O)C(=O)N2CCCC[C@H]2C(=O)O[C@H]([C@H](C)C[C@@H]2CC[C@@H](OCCOCc3cn(CCOCCOCCOCCOCCOCCOCCOCCOCCC(=O)NCCCCn4nc(-c5ccc6oc(N)nc6c5)c5c(N(C)C)ncnc54)nn3)[C@H](OC)C2)CC(=O)[C@H](C)/C=C(\C)[C@@H](O)[C@@H](OC)C(=O)[C@H](C)C[C@H](C)/C=C/C=C/C=C/1C [Example 9] | < 1 | > 1000 | > 1000 |
| CO[C@H]1C[C@@H]2CC[C@@H](C)[C@@](O)(O2)C(=O)C(=O)N2CCCC[C@H]2C(=O)O[C@H]([C@H](C)C[C@@H]2CC[C@@H](OC(=O)NCc3cn(CCOCCOCCOCCOCCOCCOCCC(=O)NCCCCn4nc(-c5ccc6oc(N)nc6c5)c5c(N)ncnc54)nn3)[C@H](OC)C2)CC(=O)[C@H](C)/C=C(\C)[C@@H](O)[C@@H](OC)C(=O)[C@H](C)C[C@H](C)/C=C/C=C/C=C/1C [Example 60] | < 1 | < 3.16 | 3.16 to 31.6 |
| CO[C@H]1C[C@@H]2CC[C@@H](C)[C@@](O)(O2)C(=O)C(=O)N2CCCC[C@H]2C(=O)O[C@H]([C@H](C)C[C@@H]2CC[C@@H](OCCCCc3cn(CCOCCOCCOCCNC(=O)CCCC(=O)NCCCCn4nc(-c5ccc6oc(N)nc6c5)c5c(N)ncnc54)nn3)[C@H](OC)C2)CC(=O)[C@H](C)/C=C(\C)[C@@H](O)[C@@H](OC)C(=O)[C@H](C)C[C@H](C)/C=C/C=C/C=C/1C [Example 100] | < 1 | 31.6 to 1000 | 3.16 to 31.6 |
